Measurements: patent publication US20120214736A1, “COMPOSITIONS AND METHODS FOR THE MODULATION OF JNK PROTEINS” (Isis Pharmaceuticals, Inc., priority 2006, published 2012)
e = 2'-O-(2-methoxyethyl) (MOE); d = 2'-deoxy (DNA)

How the values were obtained:
Assay type in all cases: cell-based
human JNK2 mRNA [1] = test: Northern analysis, human JNK2 mRNA in Jurkat cells (electroporation, dose response); conditions: 1, 5 or 20 uM
Protocol: Jurkat cells were routinely cultured in RPMI Medium 1640 (Gibco/Life Technologies, Gaithersburg, Md.) supplemented with 20% fetal calf serum (Gibco/Life Technologies, Gaithersburg, Md.). Cells were routinely passaged by aspirating media that contained excess cells and replenishing with new media.
For electroporation, cells were diluted to 28×10^6 cells/mL and placed into 1 mm electroporation cuvettes. Electroporation is performed by treating with 1-20 μM oligonucleotide, at 160 Volts for 6 msec. The entire electroporated samples are then placed into 5 mL of 10% FBS/RPMI Medium 1640 in 100 mm plates. Plates are then left overnight at 37° C./5% CO2.
Each sample is then transferred to 15 mL conical tubes and spun down at 1200 rpm for 5 minutes followed by aspiration of the supernatant. Cells are then suspended in 5 mL PBS followed by a second centrifugation at 1200 rpm for 5 minutes followed by aspiration of the supernatant. Cells are then washed and lysed. Following the lysis step, total cellular RNA is then isolated using the RNEASY kit (Qiagen, Santa Clarita, Calif.) as described in other examples herein.
In accordance with the present invention, Jurkat cells were treated by electroporation with 1, 5 or 20 uM ISIS 101759 or the control oligonucleotide and mRNA levels of human JNK2 were quantitated by Northern analysis.

human JNK2 mRNA [2] = test: Northern analysis, human JNK2 mRNA in HeLa cells (dose response); conditions: 10, 50 or 200 nM
Protocol: The human cervix epithelial adenocarcinoma cell line HeLa was obtained from the American Type Culture Collection (Manassas, Va.). HeLa cells were routinely cultured in Minimum essential medium (Eagle) with 2 mM L-glutamine and Earle's BSS adjusted to contain 1.5 g/L sodium bicarbonate, 0.1 mM non-essential amino acids, and 1.0 mM sodium pyruvate, 90%; fetal bovine serum, 10% at a temperature of 37° C. Cells were seeded into 100 mm dishes and incubated overnight at 37° C./5% CO2
(§1) When cells reached 70% confluency, they were treated with oligonucleotide. For cells grown in 10 cm dishes, cells were washed once with 5 ml PBS and then treated with 5 ml of OPTI-MEM-1 containing 3 ul LIPOFECTIN (Invitrogen Corporation, Carlsbad, Calif.)/100 nM oligonucleotide/ml OPTI-MEM-1. For other oligonucleotide concentrations the oligonucleotide/Lipofectin ration was held constant. […] Cells were harvested 16-24 hours after oligonucleotide treatment.
In accordance with the present invention, HeLa cells were treated with 10, 50 or 200 nM ISIS 101759 or the control oligonucleotide and mRNA levels of human JNK2 were quantitated by Northern analysis.

human JNK2 mRNA [3] = test: Northern analysis, human JNK2 mRNA in HuVEC cells (time course); conditions: 100 nM; 0-72 hours
Protocol: The human umbilical vein endothilial cell line HuVEC was obtained from Clonetics (Clonetics Corporation Walkersville, Md.). HuVEC cells were routinely cultured in EBM (Clonetics Corporation Walkersville, Md.) supplemented with SingleQuots supplements (Clonetics Corporation, Walkersville, Md.). […] Cells were seeded into 100 mm dishes and incubated overnight at 37° C./5% CO2. (Falcon-Primaria #3872).
as §1
In accordance with the present invention, HuVEC cells were treated with 100 nM ISIS 101759 or the control oligonucleotide and mRNA levels of human JNK2 were monitored over a time-course of 0-72 hours and quantitated by Northern analysis.

Substance: GsCsTsCsAsGsTsGsGsAsCsAsTsGsGsAsTsGsAsG (GCTCAGTGGACATGGATGAG; sugars from the 5' end e5 d10 e5, all phosphorothioate, methylation of C not given here) [ISIS 101759]
- expression of human JNK2 in Jurkat cells (human JNK2 mRNA [1]): capable of reducing the expression of human JNK2 in human Jurkat cells in a dose-dependent manner
- expression of human JNK2 in HeLa cells (human JNK2 mRNA [2]): capable of reducing the expression of human JNK2 in human HeLa cells in a dose-dependent manner
- expression of human JNK2 in HuVEC cells (human JNK2 mRNA [3]): capable of reducing the expression of human JNK2
